Where a name gives a salt, the structure may show the parent alone.
What follows are molecules tested against T1, c-Myc/Max/Ebox DNA (Homo sapiens, UniProt P01106) (assay: c-Myc/Max/Ebox DNA AlphaScreen Assay). Conditions: calculated IC50; free c-Myc 20 nM, his6-Max 5 nM, biotinylated Ebox oligo 10 nM; 2 hour incubation.
T1 construct: his6 (cleaved yes)
Format: binding
Experimental: Compounds of the invention were assayed for c-Myc/Max/EBox activity as described in the following protocol. Human his6-c-Myc and his6-Max were used with biotinylated DNA containing a single Ebox sequence (biotin[…] (SEQ ID NO: 1)) purchased from MWG Operon. Free c-Myc was generated from his6-c-Myc through thrombin cleavage of the his6 tag (SEQ ID NO: 2). For 384-well plate assays, 10 μL of a 2× solution of free c-Myc (20 nM final), Ni^2+ coated Acceptor Beads (25 μg/ml final), and biotinylated Ebox oligo (10 nM final) were added to 384-well plates with a Biotek EL406 liquid handler. 50 nL of compounds from stock plates were added by pin transfer using a Janus Workstation (PerkinElmer), allowing the compounds to interact with c-Myc prior to c-Myc binding with Max. In the current assay, DMSO was not allowed to exceed 2% v/v of the assay. 10 μl of 2× master mix containing streptavidin-coated donor beads (25 μg/ml final) and his6-Max (5 nM) were added. AlphaScreen measurements were performed on an Envision plate reader (PerkinElmer) utilizing the manufacturer's protocol.
Both master mixes were made in room temperature assay buffer (50 mM HEPES, 150 mM NaCl, 0.2% w/v BSA, 0.02% w/v Tween20, 40 μg/ml glycogen, 500 μM DTT, pH 8.0, wherein both DTT and glycogen were added fresh). Alpha beads were added to respective master solutions. All subsequent steps were performed in low light conditions. Solution 1: 2× solution of components with final concentrations of c-Myc Ni-coated Acceptor Beads (25 μg/ml), and biotinylated Ebox oligo (10 nM). Solution 2: 2× solution of streptavidin-coated donor beads (25 μg/ml final) and his6-Max 10 μL. Solution 1 was added to 384-well plate (AlphaPlate-384, PerkinElmer) with Biotek EL406 liquid handler and the plates were centrifuged very briefly. 50 nL of compounds from stock plates were added by pin transfer using a Janus Workstation. Solution 2 (10 μL) was added with the liquid handler. Plates were sealed with foil to block light exposure and prevent evaporation. Plates were very briefly centrifuged followed by 2 hour incubation. AlphaScreen measurements were performed on an Envision 2104 utilizing the manufacturer's protocol. Excitation was at 680 nm for donor bead release of singlet oxygen and emission was read with a bandpass filter from 520-620 nm. Glycogen: Roche Diagnostics #10901393001. Plate 1536: Perkin Elmer, 6004350. Plate 384: Perkin Elmer, 6005350. Nickel-His Alpha Beads: 6760619R. The data from this assay are summarized in Table 2 below (Myc/Max/DNA Activity), where “A” represents a calculated IC50 of less than 500 nM; “B” represents a calculated IC50 of between 500 nM and 5 μM; “C” represents a calculated IC50 of between 5 μM and 10 μM; “D” represents a value of greater than 10 μM, and “NT” represents a compound for which an assay result was not obtained.

T1 sequence (P01106 whole entry): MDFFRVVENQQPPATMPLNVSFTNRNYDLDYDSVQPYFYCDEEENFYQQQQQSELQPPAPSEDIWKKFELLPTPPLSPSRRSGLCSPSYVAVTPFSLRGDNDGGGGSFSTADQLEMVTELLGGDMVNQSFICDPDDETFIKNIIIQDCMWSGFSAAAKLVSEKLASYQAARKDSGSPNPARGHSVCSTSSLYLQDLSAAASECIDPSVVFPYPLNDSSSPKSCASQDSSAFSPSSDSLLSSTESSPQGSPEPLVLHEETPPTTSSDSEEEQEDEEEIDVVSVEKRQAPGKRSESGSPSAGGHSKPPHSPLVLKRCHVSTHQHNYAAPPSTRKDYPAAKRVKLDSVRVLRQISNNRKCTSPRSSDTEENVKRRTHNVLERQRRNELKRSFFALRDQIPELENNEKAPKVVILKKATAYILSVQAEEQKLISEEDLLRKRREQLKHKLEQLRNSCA

| IC50 [nM] | Compound |
| --- | --- |
| > 10000 | CC(=O)Nc1sc2c(c1-c1nc(-c3ccccc3)cs1)CCNC2 [Compound 100, N-(3-(4-phenylthiazol-2-yl)-4,5,6,7-tetrahydrothieno[2,3-c]pyridin-2-yl)acetamide] |
| 500 to 5000 | CC(C)NCCC(=O)Nc1sc2c(c1-c1nc(C(=O)O)cs1)CCNC2 [Compound 101, 2-(2-(3-(isopropylamino)propanamido)-4,5,6,7-tetrahydrothieno[2,3-c]pyridin-3-yl)thiazole-4-carboxylic acid] |
| < 500 | CC(C)NCCC(=O)Nc1sc2c(c1-c1nc(-c3cccnc3)cs1)CCNC2 [Compound 103] |
| < 500 | CC(C)NCCC(=O)Nc1sc2c(c1-c1nc(-c3ccccn3)cs1)CCNC2 [Compound 104, 3-(Isopropylamino)-N-(3-(4-(pyridin-2-yl)thiazol-2-yl)-4,5,6,7-tetrahydrothieno[2,3-c]pyridin-2-yl)propanamide] |
| 500 to 5000 | COCCNCCC(=O)Nc1sc2c(c1-c1nc(-c3ccccn3)cs1)CCNC2 [Compound 110] |
| > 10000 | CC(C)NCCC(=O)Nc1sc2c(c1-c1nc(C(=O)Nc3ccccc3)cs1)CCNC2 [Compound 113, 2-(2-(3-(isopropylamino)propanamido)-4,5,6,7-tetrahydrothieno[2,3-c]pyridin-3-yl)-N-phenylthiazole-4-carboxamide] |
| < 500 | CC(C)NCCC(=O)Nc1sc2c(c1-c1nc(-c3cnn(C)c3)cs1)CCNC2 [Compound 114] |
| < 500 | CC(C)NCCC(=O)Nc1sc2c(c1-c1nc(-c3cncc(F)c3)cs1)CCNC2 [Compound 115] |
| 500 to 5000 | Cc1cn(-c2csc(-c3c(NC(=O)CCNC(C)C)sc4c3CCNC4)n2)cn1 [Compound 117] |
| < 500 | COc1cncc(-c2csc(-c3c(NC(=O)CCNC(C)C)sc4c3CCNC4)n2)c1 [Compound 119] |
| < 500 | Cc1cncc(-c2csc(-c3c(NC(=O)CCNC(C)C)sc4c3CCNC4)n2)c1 [Compound 122] |
| 500 to 5000 | Cc1ccncc1-c1csc(-c2c(NC(=O)CCNC(C)C)sc3c2CCNC3)n1 [Compound 123] |
| < 500 | CC(C)NCCC(=O)Nc1sc2c(c1-c1nc(C(=O)Nc3cccnc3)cs1)CCNC2 [Compound 124, 2-(2-(3-(Isopropylamino)propanamido)-4,5,6,7-tetrahydrothieno[2,3-c]pyridin-3-yl)-N-(pyridin-3-yl)thiazole-4-carboxamide] |
| < 500 | CC(C)NCCC(=O)Nc1sc2c(c1-c1nc(C3=CCNCC3)cs1)CCNC2 [Compound 126] |
| < 500 | COc1ncccc1-c1csc(-c2c(NC(=O)CCNC(C)C)sc3c2CCNC3)n1 [Compound 127] |
| < 500 | CC(C)NCCC(=O)Nc1sc2c(c1-c1nc(-c3cncnc3)cs1)CCNC2 [Compound 128] |
| < 500 | CC(C)NCCC(=O)Nc1sc2c(c1-c1nc(-c3ccc[nH]c3=O)cs1)CCNC2 [Compound 129] |
| 500 to 5000 | CC(C)NCCC(=O)Nc1sc2c(c1-c1nc(C3=CCOCC3)cs1)CCNC2 [Compound 130, N-(3-(4-(3,6-Dihydro-2H-pyran-4-yl)thiazol-2-yl)-4,5,6,7-tetrahydrothieno[2,3-c]pyridin-2-yl)-3-(isopropylamino)propanamide dihydrochloride] |

Reference: patent publication US11274103B2, “Compounds for the modulation of MYC activity” (Syros Pharmaceuticals, Inc., priority 2016, dated 2022)
